In this assay the target is T1, ITPKb (Mus musculus, UniProt B2RXC2).
T1 construct: murine ITPKb residues 640-942; MGSDKIHHHHHH (His6 tag from MH4 plasmid) (N); made in house; host or cells: Escherichia coli HK100
T1 sequence (B2RXC2 640-942): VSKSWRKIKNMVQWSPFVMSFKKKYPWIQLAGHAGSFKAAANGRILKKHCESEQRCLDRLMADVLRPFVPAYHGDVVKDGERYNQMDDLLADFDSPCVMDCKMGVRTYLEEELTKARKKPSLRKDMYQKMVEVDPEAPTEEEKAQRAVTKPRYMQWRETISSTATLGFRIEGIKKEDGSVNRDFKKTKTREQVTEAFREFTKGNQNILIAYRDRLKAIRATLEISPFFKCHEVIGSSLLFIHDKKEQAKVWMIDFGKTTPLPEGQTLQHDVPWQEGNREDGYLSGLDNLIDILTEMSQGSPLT
The experiment in a line: Biochemical measurement of ITPKb activity (Kinase-Glo ATP depletion assay); inhibiting the phosphorylation of IP3 to IP4. Details: species or system murine. As for the experimental part: Compounds of the present invention are assayed to measure their capacity to inhibit ITPKb according to the following assays.
The DNA sequence encoding murine ITPKb residues 640-942 is amplified from a full-length construct in mammalian expression vector pKDNZ by PCR. The 3′-primer incorporates a stop codon and an overhanging PacI site. The product is digested with Pad before being ligated into the MH4 plasmid which has been prepared by digestion with PmlI and PacI. Cloning into the MH4 plasmid adds the sequence MGSDKIHHHHHH to the N-terminus of the translated region. Mutant enzymes are made by site-directed mutagenesis using the Stratagene Quikchange kit.
ITPKb is expressed in the HK100 strain of Escherichia coli. Typically, a 4 L batch of cells is grown in LB with […] ampicillin to 0.5 A600 at 30 degrees C., before induction with 0.02% L-arabinose for 6 hours. Cells are harvested by centrifugation, and pellets are resuspended in 50 mL of 50 mM Tris (pH 8), 100 mM NaCl, 1 mM TCEP, and 0.1 mg/mL lysozyme, with 1 Complete protease inhibitor tablet (Roche). Cells are disrupted by sonication, and debris is removed by centrifugation for 40 minutes at 35000 g.
Initial purification is performed using three nickel-Sepharose Hi-Trap HP 1 mL columns (Amersham) connected in series. After application of the pellet supernatants, the bound material is washed with 20 mM Tris (pH 8.0), 20 mM imidazole, 10% glycerol (v/v), and 1 mM TCEP before elution with an imidazole gradient up to 200 mM.
Fractions containing ITPKb are identified by SDS-PAGE, and the pure fractions are concentrated and buffer exchanged using centriprep 20 15 kDa columns into 20 mM Tris (pH 8), 200 mM KCl, 5 mM MgCl2, 0.5 mM DTT, 10% glycerol, 1 μM IP3, and 20 μM ATP to a final protein concentration of 7 mg/mL.
ITPKb activity is determined using the Kinase-Glo (Promega) ATP depletion assay. The assay reaction buffer consists of 50 mM Tris (pH 8.0), 100 mM NaCl, 1 mM DTT, 10% glycerol, 5 mM MgCl2, 1 μM ATP, and 10 μM IP3 (Alexis Biochemicals). 50 nl of inhibitor is then added to each 40 μL reaction followed by a 10 μL addition of purified ITPKb (final concentration of 60 nM). The reaction mixture is incubated for 60 minutes at room temperature and stopped by the addition of an equal volume of kinase-glo reagent (Promega). Luminescence is measured using a Molecular Devices Acquest instrument.
In general terms: Kinase-Glo reads ATP consumption through a luciferase reaction.

Setting [1] is: Table 2, inhibiting the phosphorylation of IP3 to IP4, read-out: IC50.
Where [2] appears, read: read-out: IC50 in inhibiting the phosphorylation of IP3 to IP4.
The mark [3] stands for this setting: Table 1, inhibiting the phosphorylation of IP3 to IP4, read-out: IC50.

The results in this text go back to patent US20110263610A1, “COMPOUNDS AND COMPOSITIONS AS ITPKB INHIBITORS” (IRM LLC, priority 2008, published 2011).

Like-named read-outs stand apart in the source and are kept apart here.

The IC50 is the concentration that inhibits the measured activity by half. With `C[C@@H]1CN(Cc2n[nH]nc2-c2ccc(C#N)cc2)CCN1c1ccc(C(F)(F)F)cc1` [Example 19, (R)-4-(5-((3-methyl-4-(4-(trifluoromethyl)phenyl)piperazin-1-yl)methyl)-2H-1,2,3-triazol-4-yl)benzonitrile], under setting [1], the IC50 worked out at 40 nM.
As to `CNC(=O)c1c[nH]c(-c2n[nH]cc2CN2CCN(c3ccc(C(F)(F)F)cn3)[C@H](C)C2)c1` [Example 3, (R)—N-methyl-5-(4-((3-methyl-4-(5-(trifluoromethyl)pyridin-2-yl)piperazin-1-yl)methyl)-1H-pyrazol-3-yl)-1H-pyrrole-3-carboxamide], the IC50 under setting [2] was 11 nM.
As for `C[C@@H]1CN(Cc2c[nH]nc2-c2nc3c([nH]2)CCCC3)CCN1c1ccc(C(F)(F)F)cn1` [Example 26], the 50% inhibitory concentration (IC50) under setting [3] was found to be 5010 nM.
`C[C@@H]1CN(Cc2c[nH]nc2C(=O)Nc2n[nH]cc2C#N)CCN1c1ccc(C(F)(F)F)cn1` [Example 33]: under setting [3], the IC50 is over 10000 nM.
Regarding `C[C@@H]1CN(Cc2c[nH]nc2-c2nc(C(=N)N)c[nH]2)CCN1c1ccc(C(F)(F)F)cn1` [Example 12, (R)-2-(4-((3-methyl-4-(5-(trifluoromethyl)pyridin-2-yl)piperazin-1-yl)methyl)-1H-pyrazol-3-yl)-1H-imidazole-4-carboximidamide], under setting [1], the IC50 was 475 nM.
As to `C[C@@H]1CN(Cc2c[nH]nc2-c2nc3cc(C#N)ccc3[nH]2)CCN1c1ccc(C(F)(F)F)cn1` [Example 28], under setting [3], the 50% inhibitory concentration (IC50) came out at 2450 nM.
`CC(=O)N1CC=C(c2n[nH]cc2CN2CCN(c3ccc(C(F)(F)F)cn3)[C@H](C)C2)CC1` [Example 47]: the IC50 under setting [3] worked out at 66 nM.
In the case of `C[C@@H]1CN(Cc2c[nH]nc2-c2ccc(C(N)=O)o2)CCN1c1ccc(C(F)(F)F)cn1` [Example 39], under setting [3], the 50% inhibitory concentration (IC50) was determined as 8 nM.
Take `C[C@@H]1CN(Cc2c[nH]nc2-c2nc3cc(F)ccc3[nH]2)CCN1c1ccc(C(F)(F)F)cn1` [Example 27]: the IC50 under setting [3] was determined as 9800 nM.
Turning to `C[C@@H]1CN(Cc2c[nH]nc2C(=O)N2CCC(O)CC2)CCN1c1ccc(C(F)(F)F)cn1` [Example 36], the IC50 under setting [3] is over 10000 nM.
Consider `C[C@@H]1CN(Cc2c[nH]nc2-c2c[nH]c3ncccc23)CCN1c1ccc(C(F)(F)F)cn1` [Example 44], for which the IC50 under setting [3] was 182 nM.
Still for that read-out and setting: with `C[C@@H]1CN(Cc2c[nH]nc2C(=O)Nc2nc[nH]c2C#N)CCN1c1ccc(C(F)(F)F)cn1` [Example 30] the figure was over 10000 nM.
Turning to `C[C@@H]1CN(Cc2c[nH]nc2-c2cc(C#N)c[nH]2)CCN1c1ccc(C(F)(F)F)cn1` [Example 1, (R)-5-(4-((3-methyl-4-(5-(trifluoromethyl)pyridin-2-yl)piperazin-1-yl)methyl)-1H-pyrazol-3-yl)-1H-pyrrole-3-carbonitrile], the IC50 under setting [2] worked out at 9 nM.
In the case of `CC(O)CNC(=O)c1c[nH]c(-c2n[nH]cc2CN2CCN(c3ccc(C(F)(F)F)cn3)[C@H](C)C2)c1` (stereo partly shown) [Example 43], under setting [3], the IC50 turned out to be 14 nM.
As to `Cc1nc(-c2n[nH]cc2CN2CCN(c3ccc(C(F)(F)F)cn3)[C@H](C)C2)[nH]c1C` [Example 25], the IC50 under setting [3] was over 10000 nM.
In the case of `C[C@@H]1CN(Cc2c[nH]nc2C2CCN(C=O)CC2)CCN1c1ccc(C(F)(F)F)cn1` [Example 49], under setting [3], the IC50 came out at 241 nM.
Take `C[C@@H]1CN(Cc2c[nH]nc2-c2c[nH]c(C#N)c2)CCN1c1ccc(C(F)(F)F)cn1` [Example 6, (R)-4-(4-((3-methyl-4-(5-(trifluoromethyl)pyridin-2-yl)piperazin-1-yl)methyl)-1H-pyrazol-3-yl)-1H-pyrrole-2-carbonitrile]: under setting [2], the IC50 is 6 nM.
Consider `C[C@@H]1CN(Cc2c[nH]nc2C(=O)N2CCC(O)C2)CCN1c1ccc(C(F)(F)F)cn1` (stereo partly shown) [Example 35], for which the IC50 under setting [3] was over 10000 nM.
On to `C[C@@H]1CN(Cc2c[nH]nc2-c2ccnc3[nH]ccc23)CCN1c1ccc(C(F)(F)F)cn1` [Example 40], for which the IC50 under setting [3] is 478 nM.
